In patent publication US10792232B2, “Methods to deliver antifibrinolytic drugs for anti-aging results” (MURDOCK TECHNOLOGIES, LLC, priority 2016, dated 2020):
Where two headings read alike, the source gives them in different places.

What was measured:
dark patches of skin = conditions: injected directly into affected area, sometimes with laser therapy, melasma patients; cited from earlier work
surface of the face = conditions: 1-2 ml of 10% solution applied daily to the face, over 14-21 days
Source text: The present invention is based on the realization that the aging process and its physical effects on the skin and body involve the activation of a fibrinolytic process. […] The dosage of antifibrinolytic agent(s) should be less than 6 grams per day. […] A particularly advantageous manner of administration for topical delivery is by single use pre-impregnated towelettes applied to the area of the skin to be treated.

[1] = cited from earlier work
[2] = system: mice that are bred to display skin dryness; conditions: oral, 750 mg/kg/day over 20 days; cited from earlier work

Q: Which “effect on dark patches of skin” value (dark patches of skin) does the source give for `NC[C@H]1CC[C@H](C(=O)O)CC1` [tranexamic acid] here?
A: lighten dark patches of skin

Q: What about the lines and wrinkles (surface of the face) of the same compound?
A: lines and wrinkles are fewer and less pronounced

Q: What about the overall skin tone (surface of the face) of the same compound?
A: improved

Q: And the “dose shown to induce seizures” value ([1]; equivalent of 80 mg/kg/day)?
A: approximately 6 grams per day

Q: What about the “dose shown to induce seizures” value ([1]; in vivo) of the same compound?
A: > 80 mg/kg/day

Q: And the “effect on wrinkles caused by skin dryness” value [2]?
A: amelioration effect on wrinkles specifically caused by skin dryness
